# Columns and labels:
# [1] = test system: patients with acute pericarditis; conditions: at 18 months, colchicine 1.0 to 2.0 mg first day then 0.5 to 1.0 mg/day for 3 months added to conventional treatment, p=0.004; cited from earlier work
# [2] = test system: patients with a first episode of recurrent pericarditis; conditions: at 18 months, colchicine 1.0-2.0 mg first day then 0.5-1.0 mg/d for 6 months added to conventional treatment; cited from earlier work
# [3] = test system: patients with clinically stable coronary disease; test: LoDoCo Trial: colchicine 0.5 mg/day added to standard secondary prevention therapies
# Protocol: To assess the therapeutic effects of an immediate release formulation in patients with cardiovascular disease, a prospective randomized observer blinded end-point trial was conducted to determine whether adding 0.5 mg/day of colchicine to standard secondary prevention therapies including aspirin and high dose statins reduces the risk of cardiovascular events in patients with objectively diagnosed and clinically stable coronary disease.
# Eligible consenting patients with established coronary disease presenting for routine clinical review were randomized to receive colchicine 0.5 mg/day or no colchicine without any other change to their medical therapy. All outcomes were evaluated by an experienced adjudicator blinded to the treatment allocation.
# It was planned to recruit a study population that would include 500 patients planned (532 patients randomized as 32 dropped out early), 250 randomized to the control group and 250 patients randomized to treatment who were tolerant of colchicine for at least 4 weeks after the date of their randomization. Patients were eligible for inclusion if they met each of the following criteria: 1) angiographically proven coronary disease; 2) aged 35 to 85 years; 3) clinically stable for at least 6 months, 4) no major competing co-morbidities or contra-indication to colchicine therapy, 5) considered to be compliant with therapy and attending routine cardiology follow up appointments, and 6) willing to be consented and randomized into the study. Patients with a history of bypass surgery were only eligible if they had undergone bypass surgery more than 10 years before, or had angiographic evidence of graft failure or had undergone stenting since their bypass surgery. All patients signed informed consent before randomization.
# The randomization sequence was computer generated, kept concealed from the investigators at all times and was managed by a research assistant who had no involvement in the evaluation or management of study patients. […] Despite electing to use the lowest dose of colchicine available, it was anticipated that a number of patients would withdraw from therapy early after randomization due to gastrointestinal side effects. In order to ensure that the requisite number of patients in the treatment arm were actually tolerant of treatment, the protocol allowed for the research assistant to assign a newly recruited patient to treatment if a patient discontinued colchicine due to side effects in the first month. Patients who were intolerant to therapy remained in the study, and were followed in the usual manner and included in the primary intention to treat analysis.
# The drug was dispensed by their usual chemist, and if requested, patients were reimbursed for the cost of these scripts. All other treatments were continued as usual.
# Patient compliance with treatment and outcome data were collected at routine follow up visits and at the time of any unplanned hospital admission. An acute coronary syndrome (ACS) was defined as either (a) Acute Myocardial Infarction (AMI), as evidenced by acute ischemic chest pain associated with a rise in serum troponin above the upper limit of normal or (b) Unstable Angina (UA), as evidenced by a recent acceleration of the patient's angina unassociated with a rise in serum troponin but associated with angiographic evidence of a change in the patient's coronary anatomy. […] The ACS was characterized as being stent-related if there was evidence of significant in-stent stenosis or acute stent thrombosis. Out of Hospital Cardiac Arrest was defined as either a sudden death as evidenced on the patient's death certificate, or a non-fatal out of hospital cardiac arrest, defined as a recovery from sudden collapse associated with documented asystole, ventricular tachycardia or ventricular fibrillation.
# [4] = No treatment (no antithrombotic drug), colchicine group 1
# [5] = Treated with Aspirin + clopidogrel + warfarin, colchicine group 2
# [6] = Treated with Aspirin + clopidogrel, colchicine group 33
# [7] = Treated with Aspirin + warfarin, colchicine group 6
# [8] = Treated with Aspirin alone, colchicine group 173
# [9] = Treated with Clopidogrel alone or warfarin alone (no aspirin), colchicine group 28
# [10] = Treated with Clopidogrel alone, colchicine group 12
# [11] = Treated with Warfarin alone, colchicine group 16
# [12] = Treated with a least one antiplatelet drug (at least aspirin, clopidogrel or combinations thereof), colchicine group 226
# [13] = Treated with at least aspirin, colchicine group 214
# [14] = Treated with at least one antithrombotic drugs (at least aspirin, clopidogrel or warfarin or combinations thereof), colchicine group 242
# [15] = intention to treat, 282 patients
structure (smiles),measurement,setting,value
CC(=O)Oc1ccccc1C(=O)O [aspirin],recurrence rate,[1],32.3%
same,recurrence rate (actuarial rates),[2],50.6%
"COc1cc2c(c(OC)c1OC)-c1ccc(OC)c(=O)cc1[C@@H](NC(C)=O)CC2 [colchicine, N[5,6,7,9-tetrahydro-1,2,3,10-tetratmethoxy 9-oxobenzo[a]heptalen-7-yl],(S)-acetamide]",recurrence rate,[1],10.7%
same,recurrence rate (actuarial rates),[2],24.0%
same,"early intolerance due to gastrointestinal side effects, incidence",[3]; 282 randomized to treatment,11%
same,"Primary Outcome, number of patients",[3]; [4],0 (0%)
same,"Primary Outcome, percent",[3]; [4],0 (0%)
same,"Primary Outcome, number of patients","[3]; Total*, colchicine group 243",11
same,"Primary Outcome, percent","[3]; Total*, colchicine group 243",4.5%
same,"Primary Outcome, number of patients",[3]; [5],0 (0%)
same,"Primary Outcome, percent",[3]; [5],0 (0%)
same,"Primary Outcome, number of patients",[3]; [6],3
same,"Primary Outcome, percent",[3]; [6],9%
same,"Primary Outcome, number of patients",[3]; [7],0 (0%)
same,"Primary Outcome, percent",[3]; [7],0 (0%)
same,"Primary Outcome, number of patients",[3]; [8],7
same,"Primary Outcome, percent",[3]; [8],4%
same,"Primary Outcome, number of patients",[3]; [9],1
same,"Primary Outcome, percent",[3]; [9],3.45%
same,"Primary Outcome, number of patients",[3]; [10],1
same,"Primary Outcome, percent",[3]; [10],8.3%
same,"Primary Outcome, number of patients",[3]; [11],0 (0%)
same,"Primary Outcome, percent",[3]; [11],0 (0%)
same,"Primary Outcome, number of patients",[3]; [12],11
same,"Primary Outcome, percent",[3]; [12],4.9%
same,"Primary Outcome, number of patients",[3]; [13],10
same,"Primary Outcome, percent",[3]; [13],4.67%
same,"Primary Outcome, number of patients",[3]; [14],11
same,"Primary Outcome, percent",[3]; [14],4.5%
same,"risk of a cardiovascular event, including an ACS, out of hospital cardiac arrest and non-cardio-embolic ischemic stroke",[3]; colchicine 0.5 mg/day added to standard therapy in patients with stable coronary disease,significantly reduces the risk
same,patients who died of non-cardiac causes,[3]; colchicine group,4 patients
same,patients who died,"[3]; colchicine group, study period",4 patients
same,"ACS unrelated to stent disease associated with UA, incidence",[3]; [15],1.8%
same,"ACS unrelated to stent disease associated with an AMI, incidence",[3]; [15],1.4%
same,"ACS unrelated to stent disease, incidence",[3]; [15],3.2%
same,"ACS, incidence",[3]; [15],4.6%
same,"primary outcome, incidence","[3]; intention to treat, 282 patients assigned to colchicine 0.5 mg/day, median follow up 36 months",5.3%
same,"primary outcome, hazard ratio","[3]; intention to treat, colchicine vs control group, 95% CI 0.18-0.59, p<0.001",0.33
same,"ACS unrelated to stent disease associated with UA, patients","[3]; intention to treat, of 282",5
same,"ACS unrelated to stent disease associated with an AMI, patients","[3]; intention to treat, of 282",4
same,"ACS unrelated to stent disease, patients","[3]; intention to treat, of 282",9
same,patients presenting with an ACS,"[3]; intention to treat, of 282",13
same,"primary outcome (ACS, out of hospital cardiac arrest or non-cardio-embolic ischemic stroke), patients with event","[3]; intention to treat, of 282 patients assigned to colchicine 0.5 mg/day, median follow up 36 months",15 patients
same,"early intolerance due to gastrointestinal side effects, patients",[3]; of 282 randomized to treatment,32
same,"events (primary outcome), hazard ratio","[3]; on-treatment vs control, 95% CI 0.15-0.56, p<0.001",0.29
same,"events (primary outcome), incidence","[3]; on-treatment: compliant and tolerant to therapy beyond the first month, 243 patients",4.5%
same,"events (primary outcome), patients","[3]; on-treatment: compliant and tolerant to therapy beyond the first month, of 243",11
same,"stent related ACS with evidence of acute stent thrombosis, patients",[3]; per group,2
same,"stent related ACS with evidence of significant in-stent stenosis, patients",[3]; per group,2
same,number needed to treat,"[3]; primary outcome, intention to treat",11
same,out of hospital cardiac arrest and non-cardio-embolic ischemic stroke,"[3]; treatment group vs control, infrequent events",reduced
same,"AMI unrelated to stent disease, hazard ratio","[3]; vs control, 95% CI 0.08-0.76, p=0.014",0.25
same,"UA unrelated to stent disease, hazard ratio","[3]; vs control, 95% CI 0.10-0.75, p=0.011",0.27
same,"ACS unrelated to stent disease, hazard ratio","[3]; vs control, 95% CI 0.12-0.55, p<0.001",0.26
same,"ACS, hazard ratio","[3]; vs control, 95% CI 0.18-0.63, p<0.001",0.33

# From US20150196514A1, “METHOD OF TREATING CARDIOVASCULAR EVENTS USING COLCHICINE CONCURRENTLY WITH AN ANTITHROMBOTIC DRUG” (Murray and Poole Enterprises Limited, priority 2012, published 2015)
